# Results from patent publication US10251889B2, “Substituted pyrazolo[1,5-a]pyrimidine compounds as Trk kinase inhibitors” (Array BioPharma, Inc., priority 2009, dated 2019).
# Target: Jak2 (human Jak2 kinase domain, amino acids 808-1132) (Homo sapiens (Human), UniProt O60674)
# Assay: Jak2 inhibition assay (Omnia kinase assay)
# Assay type: biochemical
# Details: read-out: Jak2 Enzyme (% inhibition at 1000 nM), Table 1; 1000 nM test compound
# Sequence of Jak2 (human Jak2 kinase domain, amino acids 808-1132) (O60674 808-1132): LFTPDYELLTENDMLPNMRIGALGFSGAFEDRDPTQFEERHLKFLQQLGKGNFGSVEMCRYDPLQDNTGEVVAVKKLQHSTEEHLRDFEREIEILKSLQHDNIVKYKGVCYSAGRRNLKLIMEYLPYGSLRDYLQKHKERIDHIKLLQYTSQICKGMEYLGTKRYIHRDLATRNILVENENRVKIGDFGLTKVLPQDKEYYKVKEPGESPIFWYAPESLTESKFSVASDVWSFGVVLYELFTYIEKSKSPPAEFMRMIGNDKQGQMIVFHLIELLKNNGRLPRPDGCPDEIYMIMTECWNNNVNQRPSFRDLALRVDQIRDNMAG
row,SMILES,inhibition at 1 µM [%]
1,"CC(C)NC(=O)c1cnn2ccc(N3[C@H](CO)CC[C@@H]3c3cncc(F)c3)nc12 [Example 215, 5-((2R,5S)-2-(5-fluoropyridin-3-yl)-5-(hydroxymethyl)pyrrolidin-1-yl)-N-isopropylpyrazolo[1,5-a]pyrimidine-3-carboxamide]",28.3
2,"CC(C)(CF)NC(=O)c1cnn2ccc(N3CCC[C@@H]3c3cncc(F)c3)nc12 [Example 71, (R)—N-(1-fluoro-2-methylpropan-2-yl)-5-(2-(5-fluoropyridin-3-yl)pyrrolidin-1-yl)pyrazolo[1,5-a]pyrimidine-3-carboxamide]",6.2
3,"COCC(O)CNC(=O)c1cnn2ccc(N3CCCC3c3cncc(F)c3)nc12 [Example 119, 5-((R)-2-(5-fluoropyridin-3-yl)pyrrolidin-1-yl)-N-(2-hydroxy-3-methoxypropyl)pyrazolo[1,5-a]pyrimidine-3-carboxamide]",1.7
4,"Cc1ncc(F)cc1[C@H]1CCCN1c1ccn2ncc(C(=O)N3CC(O)C3)c2n1 [Example 192, (R)-(5-(2-(5-fluoro-2-methylpyridin-3-yl)pyrrolidin-1-yl)pyrazolo[1,5-a]pyrimidin-3-yl)(3-hydroxyazetidin-1-yl)methanone]",0.3
5,"O=C(NC1CC1)c1cnn2ccc(N3CCC[C@@H]3c3cccc(F)c3)nc12 [Example 37, (R)—N-cyclopropyl-5-(2-(3-fluorophenyl)pyrrolidin-1-yl)pyrazolo[1,5-a]pyrimidine-3-carboxamide]",25
6,"COc1ccc(F)cc1[C@H]1CCCN1c1ccn2ncc(C(=O)NCC(C)(C)O)c2n1 [Example 49, (R)-5-(2-(5-fluoro-2-methoxyphenyl)pyrrolidin-1-yl)-N-(2-hydroxy-2-methylpropyl)pyrazolo[1,5-a]pyrimidine-3-carboxamide]",17.2
7,"O=C(NCCN1CCNC1=O)c1cnn2ccc(N3CCC[C@@H]3c3cc(F)ccc3F)nc12 [Example 24, (R)-5-(2-(2,5-difluorophenyl)pyrrolidin-1-yl)-N-(2-(2-oxoimidazolidin-1-yl)ethyl) pyrazole[1,5-a]pyrimidine-3-carboxamide]",11.5
8,"Cn1cc(F)cc([C@H]2CCCN2c2ccn3ncc(C(=O)Nc4ccc(F)cn4)c3n2)c1=O [Example 239, (R)-5-(2-(5-fluoro-1-methyl-2-oxo-1,2-dihydropyridin-3-yl)pyrrolidin-1-yl)-N-(5-fluoropyridin-2-yl)pyrazolo[1,5-a]pyrimidine-3-carboxamide]",15.5
9,"COc1ncc(F)cc1[C@H]1CCCN1c1ccn2ncc(C(=O)N3CC(O)C3)c2n1 [Example 139, (R)-(5-(2-(5-fluoro-2-methoxypyridin-3-yl)pyrrolidin-1-yl)pyrazolo[1,5-a]pyrimidin-3-yl)(3-hydroxyazetidin-1-yl)methanone]",-0.4
10,"C[C@@H](O)CNC(=O)c1cnn2ccc(N3CCC[C@@H]3c3cncc(F)c3)nc12 [Example 110, 5-((R)-2-(5-fluoropyridin-3-yl)pyrrolidin-1-yl)-N-((R)-2-hydroxypropyl)pyrazolo[1,5-a]pyrimidine-3-carboxamide]",-0.5
11,"COc1ncc(F)cc1[C@H]1CCCN1c1ccn2ncc(C(=O)NC(CO)CO)c2n1 [Example 160, (R)-N-(1,3-dihydroxypropan-2-yl)-5-(2-(5-fluoro-2-methoxypyridin-3-yl)pyrrolidin-1-y1)pyrazolo[1,5-a]pyrimidine-3-carboxamide]",8.5
12,"NC(=O)c1cnn2ccc(N3CCC[C@@H]3c3cc(F)cc(OCC(O)CO)c3)nc12 (stereo partly drawn) [Example 209, 5-((2R)-2-(3-(2,3-dihydroxypropoxy)-5-fluorophenyl)pyrrolidin-1-yl)pyrazolo[1,5-a]pyrimidine-3-carboxamide]",5.4
13,"C[C@H](O)CNC(=O)c1cnn2ccc(N3CCC[C@@H]3c3cncc(F)c3)nc12 [Example 109, 5-((R)-2-(5-fluoropyridin-3-yl)pyrrolidin-1-yl)-N-((S)-2-hydroxypropyl)pyrazolo[1,5-a]pyrimidine-3-carboxamide]",-0.3
14,"O=C(c1cnn2ccc(N3CCC[C@@H]3c3cncc(F)c3)nc12)N1CC(O)C1 [Example 108, (R)-(5-(2-(5-fluoropyridin-3-yl)pyrrolidin-1-yl)pyrazolo[1,5-a]pyrimidin-3-yl)(3-hydroxyazetid-1-yl)methanone]",2.8
15,"COCCOc1ccc(F)cc1[C@H]1CCCN1c1ccn2ncc(C(N)=O)c2n1 [Example 89, (R)-5-(2-(5-fluoro-2-(2-methoxyethoxy)phenyl)pyrrolidin-1-yl)pyrazolo[1,5-a]pyrimidine-3-carboxamide]",33.1
16,"CC(C)(CN1CCOCC1)NC(=O)c1cnn2ccc(N3CCC[C@@H]3c3cc(F)ccc3F)nc12 [Example 9, (R)-5-(2-(2,5-difluorophenyl)pyrrolidin-1-yl)-N-(2-methyl-1-morpholinopropan-2-yl)pyrazolo[1,5-a]pyrimidine-3-carboxamide]",4.6
17,"C[C@H](NC(=O)c1cnn2ccc(N3CCC[C@@H]3c3cc(F)cn(C)c3=O)nc12)C1CC1 [Example 236, N-((S)-1-cyclopropylethyl)-5-((R)-2-(5-fluoro-1-methyl-2-oxo-1,2-dihydropyridin-3-yl)pyrrolidin-1-yl)pyrazolo[1,5-a]pyrimidine-3-carboxamide]",69.1
18,"O=C(NC1CC1)c1cnn2ccc(N3CCC[C@@H]3c3cc(F)ccc3OCC(O)CO)nc12 (stereo partly drawn) [Example 210, N-cyclopropyl-5-((2R)-2-(2-(2,3-dihydroxypropoxy)-5-fluorophenyl)pyrrolidin-1-yl)pyrazolo[1,5-a]pyrimidine-3-carboxamide]",32.3
19,"COc1ccc(F)cc1[C@H]1CCCN1c1ccn2ncc(C(=O)NCCN3CCOCC3)c2n1 [Example 54, (R)-5-(2-(5-fluoro-2-methoxyphenyl)pyrrolidin-1-yl)-N-(2-morpholinoethyl)pyrazolo[1,5-a]pyrimidine-3-carboxamide]",23
20,"O=C(NC1CCC1)c1cnn2ccc(N3CCC[C@@H]3c3cc(F)ccc3F)nc12 [Example 14, (R)—N-cyclobutyl-5-(2-(2,5-difluorophenyl)pyrrolidin-1-yl)pyrazolo[1,5-a]pyrimidine-3-carboxamide]",66.7
21,"COc1ncc(F)cc1[C@H]1CCCN1c1ccn2ncc(C(=O)NC(C)(C)CF)c2n1 [Example 81, (R)-5-(2-(5-fluoro-2-methoxypyridin-3-yl)pyrrolidin-1-yl)-N-(1-fluoro-2-methylpropan-2-yl)pyrazolo[1,5-a]pyrimidine-3-carboxamide]",54.4
22,"CC(C)(CO)CNC(=O)c1cnn2ccc(N3CCC[C@@H]3c3cncc(F)c3)nc12 [Example 125, (R)-5-(2-(5-fluoropyridin-3-yl)pyrrolidin-1-yl)-N-(3-hydroxy-2,2-dimethylpropyl)pyrazolo[1,5-a]pyrimidine-3-carboxamide]",6.1
23,"C[C@@H](NC(=O)c1cnn2ccc(N3CCC[C@@H]3c3cc(F)cn(C)c3=O)nc12)C1CC1 [Example 235, N-((R)-1-cyclopropylethyl)-5-((R)-2-(5-fluoro-1-methyl-2-oxo-1,2-dihydropyridin-3-yl)pyrrolidin-1-yl)pyrazolo[1,5-a]pyrimidine-3-carboxamide]",73.1
24,"C[C@H](CO)NC(=O)c1cnn2ccc(N3CCC[C@@H]3c3cncc(F)c3)nc12 [Example 115, 5-((R)-2-(5-fluoropyridin-3-yl)pyrrolidin-1-yl)-N-((R)-1-hydroxypropan-2-yl)pyrazolo[1,5-a]pyrimidine-3-carboxamide]",12.6
25,"O=C(NC1CC1)c1cnn2ccc(N3CCC[C@@H]3c3cc(F)cc(OCCN4CCOCC4)c3)nc12 [Example 85, (R)—N-cyclopropyl-5-(2-(3-fluoro-5-(2-morpholinoethoxy)phenyl)pyrrolidin-1-yl)pyrazolo[1,5-a]pyrimidine-3-carboxamide]",6
26,"Cc1cccnc1NC(=O)c1cnn2ccc(N3CCC[C@@H]3c3cc(F)ccc3F)nc12 [Example 3, (R)-5-(2-(2,5-difluorophenyl)pyrrolidin-1-yl)-N-(3-methylpyridin-2-yl)pyrazolo[1,5-a]pyrimidine-3-carboxamide]",10.1
27,"COc1ncc(F)cc1[C@H]1CCCN1c1ccn2ncc(C(=O)NC3CCN(CCO)CC3)c2n1 [Example 159, (R)-5-(2-(5-fluoro-2-methoxypyridin-3-yl)pyrrolidin-1-yl)-N-(1-(2-hydroxyethyl)piperidin-4-yl)pyrazolo[1,5-a]pyrimidine-3-carboxamide]",28.9
